Results on three compounds are retold here after patent US20240246942A1, “KINASE INHIBITORS FOR THE TREATMENT OF NEURODEGENERATIVE DISEASES” (priority 2020, published 2024).

Holding throughout (assay): biochemical
Assay [1] addresses T1, panel of 374 wild-type kinases (Homo sapiens, UniProt Q06418).
T1 construct: purchased Reaction Biology Corporation
T1 sequence (Q06418 41-890): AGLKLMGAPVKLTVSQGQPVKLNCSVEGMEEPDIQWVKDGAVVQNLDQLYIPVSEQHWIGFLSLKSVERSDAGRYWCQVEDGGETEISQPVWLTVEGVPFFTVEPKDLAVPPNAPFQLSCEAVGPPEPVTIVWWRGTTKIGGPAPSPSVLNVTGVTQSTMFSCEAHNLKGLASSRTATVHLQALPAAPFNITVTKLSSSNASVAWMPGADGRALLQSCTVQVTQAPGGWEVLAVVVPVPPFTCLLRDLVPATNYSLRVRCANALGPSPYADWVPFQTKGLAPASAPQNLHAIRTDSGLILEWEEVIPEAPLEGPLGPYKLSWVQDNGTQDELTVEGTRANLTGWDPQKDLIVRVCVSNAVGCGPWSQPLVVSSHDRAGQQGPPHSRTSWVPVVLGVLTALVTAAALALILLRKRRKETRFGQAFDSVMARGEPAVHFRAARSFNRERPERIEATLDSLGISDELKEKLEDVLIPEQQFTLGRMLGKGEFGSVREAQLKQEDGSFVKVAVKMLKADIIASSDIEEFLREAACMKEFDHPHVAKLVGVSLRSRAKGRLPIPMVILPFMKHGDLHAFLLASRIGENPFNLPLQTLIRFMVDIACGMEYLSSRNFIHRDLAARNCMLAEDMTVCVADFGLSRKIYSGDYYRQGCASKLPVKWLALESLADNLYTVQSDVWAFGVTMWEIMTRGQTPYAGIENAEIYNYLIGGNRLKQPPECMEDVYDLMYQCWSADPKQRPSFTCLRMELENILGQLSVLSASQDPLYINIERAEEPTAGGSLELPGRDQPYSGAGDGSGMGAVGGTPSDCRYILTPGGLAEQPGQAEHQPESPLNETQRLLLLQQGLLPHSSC
To be noted: read-out: % Enzyme Activity (relative to DMSO controls), kinase TYRO3/SKY.

The target in assay [2] is T2, panel of 374 wild-type kinases (Homo sapiens, UniProt P43250).
T2 construct: purchased Reaction Biology Corporation
To be noted: read-out: % Enzyme Activity (relative to DMSO controls), GRK6.

The target in assay [3] is T3, panel of 374 wild-type kinases (Homo sapiens, UniProt Q13976).
T3 construct: purchased Reaction Biology Corporation
T3 sequence (Q13976 1-671): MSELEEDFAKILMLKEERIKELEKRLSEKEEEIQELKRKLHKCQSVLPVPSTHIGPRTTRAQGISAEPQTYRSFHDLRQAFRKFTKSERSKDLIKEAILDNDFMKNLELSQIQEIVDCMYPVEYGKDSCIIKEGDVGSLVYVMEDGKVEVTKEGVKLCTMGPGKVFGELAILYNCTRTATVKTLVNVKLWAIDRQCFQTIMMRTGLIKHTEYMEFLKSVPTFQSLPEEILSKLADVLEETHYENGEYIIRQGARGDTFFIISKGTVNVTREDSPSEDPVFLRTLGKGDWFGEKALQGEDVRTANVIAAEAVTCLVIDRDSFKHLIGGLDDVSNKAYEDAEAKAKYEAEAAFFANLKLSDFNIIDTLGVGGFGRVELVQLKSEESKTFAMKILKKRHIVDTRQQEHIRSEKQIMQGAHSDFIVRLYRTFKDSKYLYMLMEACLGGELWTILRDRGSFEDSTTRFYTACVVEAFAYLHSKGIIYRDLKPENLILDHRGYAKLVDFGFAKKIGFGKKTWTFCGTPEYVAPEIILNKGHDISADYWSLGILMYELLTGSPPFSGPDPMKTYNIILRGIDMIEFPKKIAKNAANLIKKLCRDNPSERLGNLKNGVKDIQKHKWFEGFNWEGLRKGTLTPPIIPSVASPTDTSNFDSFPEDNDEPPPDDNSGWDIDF
To be noted: read-out: % Enzyme Activity (relative to DMSO controls), kinase PKG1a.

For assay [4], the target named is T4, panel of 374 wild-type kinases (Homo sapiens, UniProt Q15759).
T4 construct: purchased Reaction Biology Corporation
To be noted: read-out: % Enzyme Activity (relative to DMSO controls), P38b/MAPK11.

Assay [5] concerns the target T5, panel of 374 wild-type kinases (Homo sapiens, UniProt P16234).
T5 construct: purchased Reaction Biology Corporation
To be noted: read-out: % Enzyme Activity (relative to DMSO controls), kinase PDGFRa.

T2 sequence (P43250 whole entry): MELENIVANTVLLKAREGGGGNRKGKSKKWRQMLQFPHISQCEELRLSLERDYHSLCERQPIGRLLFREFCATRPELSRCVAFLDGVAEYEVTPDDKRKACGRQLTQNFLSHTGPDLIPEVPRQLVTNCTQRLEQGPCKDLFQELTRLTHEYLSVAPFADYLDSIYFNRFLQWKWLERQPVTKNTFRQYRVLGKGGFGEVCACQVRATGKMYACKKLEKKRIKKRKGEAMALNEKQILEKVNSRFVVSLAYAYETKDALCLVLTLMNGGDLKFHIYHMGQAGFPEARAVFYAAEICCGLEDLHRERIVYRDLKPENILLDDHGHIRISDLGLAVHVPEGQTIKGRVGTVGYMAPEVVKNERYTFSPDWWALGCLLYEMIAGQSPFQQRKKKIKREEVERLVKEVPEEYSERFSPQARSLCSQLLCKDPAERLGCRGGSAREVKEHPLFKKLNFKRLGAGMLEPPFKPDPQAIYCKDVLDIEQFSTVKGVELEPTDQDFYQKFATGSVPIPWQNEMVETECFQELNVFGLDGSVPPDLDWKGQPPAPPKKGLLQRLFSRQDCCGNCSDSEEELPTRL
T5 sequence (P16234 24-1089): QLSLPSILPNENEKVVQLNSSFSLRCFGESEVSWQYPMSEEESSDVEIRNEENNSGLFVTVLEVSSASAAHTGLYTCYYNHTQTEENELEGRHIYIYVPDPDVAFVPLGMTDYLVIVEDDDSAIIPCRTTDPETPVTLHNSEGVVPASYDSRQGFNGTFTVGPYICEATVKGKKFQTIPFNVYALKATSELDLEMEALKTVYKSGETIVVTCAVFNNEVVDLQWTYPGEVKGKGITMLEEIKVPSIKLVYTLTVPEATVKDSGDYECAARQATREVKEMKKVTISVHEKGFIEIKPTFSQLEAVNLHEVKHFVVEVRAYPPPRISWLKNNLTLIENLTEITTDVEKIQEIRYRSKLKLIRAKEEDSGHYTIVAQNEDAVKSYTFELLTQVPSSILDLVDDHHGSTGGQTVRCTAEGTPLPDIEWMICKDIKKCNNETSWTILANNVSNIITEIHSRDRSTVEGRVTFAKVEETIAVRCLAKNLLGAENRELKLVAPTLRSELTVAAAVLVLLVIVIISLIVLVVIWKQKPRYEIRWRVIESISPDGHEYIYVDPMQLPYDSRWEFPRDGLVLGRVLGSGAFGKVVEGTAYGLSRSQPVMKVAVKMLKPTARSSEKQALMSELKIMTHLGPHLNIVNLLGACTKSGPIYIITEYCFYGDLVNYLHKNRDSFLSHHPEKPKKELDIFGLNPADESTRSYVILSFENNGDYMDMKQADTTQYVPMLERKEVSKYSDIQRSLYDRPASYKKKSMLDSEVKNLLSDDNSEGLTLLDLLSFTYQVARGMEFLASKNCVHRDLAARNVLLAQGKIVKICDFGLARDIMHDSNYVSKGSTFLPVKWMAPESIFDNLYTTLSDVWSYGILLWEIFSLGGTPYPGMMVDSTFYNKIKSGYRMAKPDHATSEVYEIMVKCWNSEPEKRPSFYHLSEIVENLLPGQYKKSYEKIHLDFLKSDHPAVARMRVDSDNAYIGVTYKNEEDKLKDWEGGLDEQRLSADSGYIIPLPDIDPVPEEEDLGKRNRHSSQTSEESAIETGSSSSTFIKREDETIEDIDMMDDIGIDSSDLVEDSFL
T4 sequence (Q15759 whole entry): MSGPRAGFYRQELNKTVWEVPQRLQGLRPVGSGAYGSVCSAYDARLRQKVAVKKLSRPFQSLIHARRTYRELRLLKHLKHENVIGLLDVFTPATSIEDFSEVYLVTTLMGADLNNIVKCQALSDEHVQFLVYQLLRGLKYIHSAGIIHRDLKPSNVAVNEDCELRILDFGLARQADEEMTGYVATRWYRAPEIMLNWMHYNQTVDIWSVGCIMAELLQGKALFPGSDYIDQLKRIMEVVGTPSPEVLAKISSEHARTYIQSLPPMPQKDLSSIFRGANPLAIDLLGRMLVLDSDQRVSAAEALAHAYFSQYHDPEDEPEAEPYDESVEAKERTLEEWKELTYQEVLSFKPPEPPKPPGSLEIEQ

Take `O=C(Nc1cnn(-c2csc(C(=O)NC3COC3)c2)c1)Nc1ccccc1Cl` [Compound 17, 4-(4-(3-(2-chlorophenyl)ureido)-1H-pyrazol-1-yl)-N-(oxetan-3-yl)thiophene-2-carboxamide]: the remaining activity at 5 µM came to 75.4% in assay [1]; 97.9% in assay [2]; 110% in assay [3]; 101% in assay [4]; 95.2% in assay [5].
For `O=C(Nc1cnn(-c2csc(C(=O)NC3COC3)c2)c1)Nc1c(F)cccc1Cl` [Compound 25, 4-(4-(3-(2-chloro-6-fluorophenyl)ureido)-1H-pyrazol-1-yl)-N-(oxetan-3-yl)thiophene-2-carboxamide] the same measures were 68.4%, 102%, 93.2%, 91.7% and 107%.
`Cc1sc(C(=O)NC2COC2)cc1-n1cc(NC(=O)Nc2c(F)cccc2Cl)cn1` [Compound 27, 4-(4-(3-(2-chloro-6-fluorophenyl)ureido)-1H-pyrazol-1-yl)-5-methyl-N-(oxetan-3-yl)thiophene-2-carboxamide]: the remaining activity at 10 µM in assay [1] (10 uM) was 98.8%; in assay [2] (10 uM), 91.5%; in assay [3] (10 uM) it was 120%; in assay [4] (10 uM), 94.3%; in assay [5] (10 uM), 114%.
